Laboratory results reported in US10239856B2, “Synthesis of resorcylic acid lactones useful as therapeutic agents” (UNIVERSITY DE STRASBOURG, priority 2008, dated 2019).
Like-named read-outs stand apart in the source and are kept apart here.

Key:
[1] = tested on: ErbB2 in SK-BR3; test: Degradation of HSP90 client ErbB2 in SK-BR3, Western blotting after 18 hrs treatment; format: cell-based; conditions: SK-BR3, 18 hrs treatment, E-oxime isomer
[2] = tested on: HCC1954; test: Cytotoxicity against HCC1954 breast cancer cells; format: cell-based; conditions: Homo sapiens, second value of cell
Description: (§1) Compounds of the invention were assayed for cytotoxicity in HCC1954 and SK-BR-3 tumor cells.

[3] = tested on: SKBr3; test: Cytotoxicity against SKBr3 breast cancer cells; format: cell-based; conditions: Homo sapiens, SK-BR-3, first value of cell
Description: as §1

[4] = tested on: Her-2 (HSP90 client); test: Her-2 (HSP90 client) degradation (client depletion); format: cell-based
Description: A number of the compounds of the invention were tested for affinity to HSP90α (see Kim et al., J. Biomol. Screen., 2004, 9, 375), Her-2 (HSP90 client) degradation (see Xu et al., J. Biol. Chem., 2001, 276, 3702), and cytotoxicity against SKBr3 and HCC1954, two breast cancer cell lines which over express Her-2.

[5] = target: HSP90α (Homo sapiens, UniProt P07900); test: Affinity to HSP90α; format: binding
[6] = read-out: Client Depletion; Her-2 degradation
[7] = Her-2 degradation; read-out: Client Depletion

Row | SMILES | Reduction of ErbB2 concentration compared with radicicol and 17-AAG [1] | IC50 [2] [µM] | IC50 [3] [µM] | IC50 [4, 6] [µM] | IC50 ([5]; HSP90 affinity) [µM] | IC50 [4, 7] [µM] | IC50 ([5]; read-out: HSP90 affinity) [µM]
1 | O=C1OCC/C=C/CC/C=C/C(=N/OCC(=O)N2CCCCC2)Cc2cc(O)cc(O)c21 [13b] | significantly more effective than both radicicol and 17-AAG | 0.22 | 0.12 | 0.05 | 0.015 | – | –
2 | C[C@@H]1C/C=C/CC/C=C/C(=N/OCC(=O)N2CCCCC2)Cc2cc(O)cc(O)c2C(=O)O1 [13c] | significantly more effective than both radicicol and 17-AAG | 0.63 | 0.45 | 0.026 | 0.018 | – | –
3 | O=C1OCC/C=C/CC/C=C/C(=NOCC(=O)N2CCOCC2)Cc2c(Cl)c(O)cc(O)c21 [13d] | – | > 10 | > 10 | – | – | > 10 | 0.22
4 | O=C1OCC/C=C/CC/C=C/C(=NOCC(=O)N2CCNCC2)Cc2c(Cl)c(O)cc(O)c21 [13e] | – | > 10 | > 10 | – | – | > 10 | > 10
5 | COC1CC/C=C/CCOC(=O)c2c(O)cc(O)c(Cl)c2C/C(=N\OCC(=O)N2CCCCC2)C1 (centres unmarked) [13f] | – | 2.8 | 1.3 | – | – | 2.4 | 0.068
6 | O=C(CON=C1/C=C/CC/C=C/CCOC(=O)c2c(O)cc(O)c(Cl)c2C1)NCCO [13h] | – | > 10 | 7.5 | – | – | 7.7 | 0.39
7 | CNC(=O)CON=C1/C=C/CC/C=C/CCOC(=O)c2c(O)cc(O)c(Cl)c2C1 [13i] | – | > 10 | > 10 | – | – | – | 1.2
8 | O=C(CON=C1/C=C/CC/C=C/CCOC(=O)c2c(O)cc(O)c(Cl)c2C1)NCc1ccccc1 [13j] | – | 8.5 | 3.5 | – | – | 5.5 | 0.11
9 | O=C(CON=C1/C=C/CC/C=C/CCOC(=O)c2c(O)cc(O)c(Cl)c2C1)NC1CCCCC1 [13k] | – | 0.45 | 0.55 | – | – | 0.25 | 0.09
10 | COC(=O)CON=C1/C=C/CC/C=C/CCOC(=O)c2c(O)cc(O)c(Cl)c2C1 [13l] | – | > 10 | > 10 | – | – | 6.5 | 0.19
11 | C=CCC/C=C/C(Cc1c(Cl)c(O)cc(O)c1C(=O)OCCC=C)=NOCC(=O)N1CCCCC1 [13m] | – | > 10 | > 10 | – | – | > 10 | > 10
12 | O=C1OCC/C=C/CC/C=C/C(=N\OCC(=O)N2CCCCC2)Cc2c(Cl)c(O)cc(O)c21 [14a] | – | 5.2 | > 10 | – | – | > 10 | 1.8
13 | O=C1OCC/C=C/CC/C=C/C(=N\OCC(=O)N2CCCCC2)Cc2cc(O)cc(O)c21 [14b] | – | > 10 | > 10 | 5 | 0.11 | – | –
14 | CCC1CCCCN1C(=O)CON=C1/C=C/CC/C=C/CCOC(=O)c2c(O)cc(O)cc2C1 (centres unmarked) [compound 371] | – | – | – | 0.629 | 0.243 | – | –
15 | CC1CCCCN1C(=O)CON=C1/C=C/CC/C=C/CCOC(=O)c2c(O)cc(O)cc2C1 (centres unmarked) [compound 372] | – | – | – | 3.07 | 0.886 | – | –
16 | CC1CCCN(C(=O)CON=C2/C=C/CC/C=C/CCOC(=O)c3c(O)cc(O)cc3C2)C1 (centres unmarked) [compound 373] | – | – | – | 0.089 | 0.059 | – | –
17 | CC1CCCC(C)N1C(=O)CON=C1/C=C/CC/C=C/CCOC(=O)c2c(O)cc(O)cc2C1 (centres unmarked) [compound 374] | – | – | – | 2.03 | 0.238 | – | –
18 | CC1CCN(C(=O)CON=C2/C=C/CC/C=C/CCOC(=O)c3c(O)cc(O)cc3C2)CC1 [compound 375] | – | – | – | 0.201 | 0.07 | – | –
19 | O=C1OCC/C=C/CC/C=C/C(=NOCC(=O)N2CCC(c3ccccc3)CC2)Cc2cc(O)cc(O)c21 [compound 376] | – | – | – | > 10 | 2.24 | – | –
20 | O=C1OCC/C=C/CC/C=C/C(=NOCC(=O)N2CCC(Cc3ccccc3)CC2)Cc2cc(O)cc(O)c21 [compound 377] | – | – | – | > 10 | 5.76 | – | –

Row | SMILES | Reduction of ErbB2 concentration compared with radicicol and 17-AAG [1] | IC50 [2] [µM] | IC50 [3] [µM] | IC50 [4, 6] [µM] | IC50 ([5]; HSP90 affinity) [µM] | IC50 [4, 7] [µM] | IC50 ([5]; read-out: HSP90 affinity) [µM]
21 | O=C(CON=C1/C=C/CC/C=C/CCOC(=O)c2c(O)cc(O)cc2C1)NCc1ccccc1 [compound 378] | – | – | – | 0.929 | 0.057 | – | –
22 | CC(C)N(C(=O)CON=C1/C=C/CC/C=C/CCOC(=O)c2c(O)cc(O)cc2C1)C(C)C [compound 379] | – | – | – | 0.627 | 0.162 | – | –
23 | O=C1OCC/C=C/CC/C=C/C(=NOCC(=O)N2CCOCC2)Cc2cc(O)cc(O)c21 [compound 380] | – | – | – | 0.588 | 0.124 | – | –
24 | O=C1OCC/C=C/CC/C=C/C(=NOCC(=O)N(Cc2ccccc2)Cc2ccccc2)Cc2cc(O)cc(O)c21 [compound 381] | – | – | – | > 10 | 2.99 | – | –
25 | O=C1OCC/C=C/CC/C=C/C(=NOCC(=O)N2CC=CCC2)Cc2cc(O)cc(O)c21 [compound 382] | – | – | – | 0.122 | 0.022 | – | –
26 | O=C(CON=C1/C=C/CC/C=C/CCOC(=O)c2c(O)cc(O)cc2C1)NC1CCCCC1 [compound 383] | – | – | – | 0.708 | 0.116 | – | –
27 | O=C1OCC/C=C/CC/C=C/C(=NOCC(=O)N2CCSCC2)Cc2cc(O)cc(O)c21 [compound 384] | – | – | – | 0.512 | 0.07 | – | –
28 | COC(=O)CON=C1/C=C/CC/C=C/CCOC(=O)c2c(O)cc(O)cc2C1 [compound 385] | – | – | – | 8.16 | 0.373 | – | –
29 | O=C1OCC/C=C/CC/C=C/C(=NOCC(=O)N2CC=CC2)Cc2cc(O)cc(O)c21 [compound 386] | – | – | – | 0.669 | 0.128 | – | –
30 | CC1C=CC(C)N1C(=O)CON=C1/C=C/CC/C=C/CCOC(=O)c2c(O)cc(O)cc2C1 (centres unmarked) [compound 387] | – | – | – | 0.568 | 0.118 | – | –
31 | O=C1OCC/C=C/CC/C=C/C(=NOCC(=O)N2CCCC2)Cc2cc(O)cc(O)c21 [compound 388] | – | – | – | 0.509 | 0.219 | – | –
32 | CCCN(CCC)C(=O)CON=C1/C=C/CC/C=C/CCOC(=O)c2c(O)cc(O)cc2C1 [compound 389] | – | – | – | 0.454 | 0.155 | – | –
33 | CC(C)CN(CC(C)C)C(=O)CON=C1/C=C/CC/C=C/CCOC(=O)c2c(O)cc(O)cc2C1 [compound 390] | – | – | – | 0.549 | 0.094 | – | –
34 | CC1CN(C(=O)CON=C2/C=C/CC/C=C/CCOC(=O)c3c(O)cc(O)cc3C2)CC(C)O1 (centres unmarked) [compound 391] | – | – | – | 2.83 | 0.337 | – | –
35 | CC(C)(C)OC(=O)N1CCN(C(=O)CON=C2/C=C/CC/C=C/CCOC(=O)c3c(O)cc(O)cc3C2)CC1 [compound 392] | – | – | – | – | – | 2.87 | 0.327
36 | CCCC1C/C=C/CC/C=C/C(=NOCC(=O)N2CCCCC2)Cc2c(Cl)c(O)cc(O)c2C(=O)O1 (centres unmarked) [compound 394] | – | – | – | 1.58 | 0.096 | – | –
37 | O=C1NCC/C=C/CC/C=C/C(=NOCC(=O)N2CCCCC2)Cc2c(Cl)c(O)cc(O)c21 [compound 395] | – | – | – | 0.754 | 0.097 | – | –
38 | O=C1OCCC/C=C/CC/C=C/C(=NOCC(=O)N2CCCCC2)Cc2c(Cl)c(O)cc(O)c21 [compound 396] | – | – | – | – | – | 3.65 | 0.182
39 | C=C/C1=C\CC/C=C/C(=NOCC(=O)N2CCCCC2)Cc2c(Cl)c(O)cc(O)c2C(=O)OCC1 [compound 397] | – | – | – | 0.98 | 0.432 | – | –
40 | C[C@@H]1C/C=C/CC/C=C/C(=O)Cc2c(Cl)c(O)cc(O)c2C(=O)O1 [pochonin D, Pochonin D, reference compound] | – | – | – | – | – | 3.5 | 0.36
